Laboratory results from patent US20070254903A1, “Novel Spiroindoline or Spiroisoquinoline Compounds, Methods of Use and Compositions Thereof” (ARENA PHARMACEUTICALS, INC., priority 2003, published 2007).

Target: T1, human Mas receptor (Homo sapiens, UniProt P04201)
T1 construct: expressed in transfected cells
T1 sequence (P04201 1-325): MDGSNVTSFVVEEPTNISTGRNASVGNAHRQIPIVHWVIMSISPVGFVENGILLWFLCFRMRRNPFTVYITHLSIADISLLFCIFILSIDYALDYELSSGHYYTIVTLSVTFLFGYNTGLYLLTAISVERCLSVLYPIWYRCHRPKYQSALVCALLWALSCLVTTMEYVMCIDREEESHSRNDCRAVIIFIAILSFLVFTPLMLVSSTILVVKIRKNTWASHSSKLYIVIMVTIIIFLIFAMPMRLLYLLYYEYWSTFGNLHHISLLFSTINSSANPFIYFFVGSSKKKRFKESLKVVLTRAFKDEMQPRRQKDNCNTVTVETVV
Assay: Mas receptor IP3 assay (inverse agonist assay)
Type: cell-based
Settings: HEK293 cells over-expressing human Mas receptor; average from several experiments
Experimental: The Mas receptor IP3 assay was performed using a mammalian cell line (HEK293) which was transfected with a plasmid containing the human Mas receptor and selected for stable expression of the receptor. For the inverse agonist assay, higher levels of Mas receptor constitutive activity were desired. To achieve this, Mas receptor expression levels were increased by transiently transfecting the same Mas receptor stable cell line with additional human Mas receptor plasmid DNA following standard procedures. These cells were used in the Mas receptor IP3 assay approximately 24 hours post-transfection.
Cells were split into 96-well plates (50,000 cells/well) and allowed to attach for a period of 6 hours. The growth medium was then replaced with medium supplemented with 4 μCi/ml [^3H]myo-inositol (100 μl; Perkin Elmer Life Sciences) and the cells were allowed to incubate for approximately 20 hours. Test compounds were serially diluted in inositol-free media containing 10 mM LiCl. The media in the plates was removed by aspiration, replaced with these test compound solutions and incubated at 37° C. for 1 hour. Following this incubation, the media was removed by aspiration and replaced with buffer containing 0.1M formic acid. The plates were then frozen overnight at −80° C. to achieve complete cell lysis.
The following day, the assay plates were thawed at room temperature. The thawed contents were then transfered to 96-well filter plates (Millipore, Multiscreen) pre-loaded with resin (Biorad, AG1-X8 100-200 mesh, formate form). The plate was filtered using a vacuum manifold and the resin was washed multiple times with water. An elution buffer was then applied (200 μl, 0.2M Ammonium formate/0.1M formic acid) and the resulting eluent was collected, under vacuum, in a 96-well collection plate. Aliquots of the eluent (80 μl) were transferred to filter plates (Whatman, Unifilter GF/C) and dried in a 45° C. oven overnight. Dried plates were counted on a scintillation counter following the addition of an appropriate scintillant (Perkin Elmer Life Sciences, Optiphase Supermix or Hi-Safe 3).

SMILES | IC50 [nM]
COc1ccc(C(=O)N2CC3(CCN(CC4CC4)CC3)c3cc(F)ccc32)cc1 [Compound 31, 1′-(cyclopropylmethyl)-1,2-dihydro-5-fluoro-1-(4-methoxy-benzoyl)-spiro[3H-indole-3,4′-piperidine]] | 900
C=CCN1CCC2(CC1)CN(C(=O)c1ccccc1Cl)c1ccc(F)cc12 [Compound 69, 1′-(allyl)-1,2-dihydro-5-fluoro-1-(2-chloro-benzoyl)-spiro[3H-indole-3,4′-piperidine]] | 378
C=CCN1CCC2(CC1)CN(C(=O)c1cc(OC)cc(OC)c1)c1ccc(F)cc12 [Compound 73, 1′-(allyl)-1,2-dihydro-5-fluoro-1-(3,5-dimethoxy-benzoyl)-spiro[3H-indole-3,4′-piperidine]] | 867
C=CCN1CCC2(CC1)CN(C(=O)c1ccc(F)cc1F)c1ccc(F)cc12 [Compound 76, 1′-(allyl)-1,2-dihydro-5-fluoro-1-(2,4-difluoro-benzoyl)-spiro[3H-indole-3,4′-piperidine]] | 936
C=CCN1CCC2(CC1)CN(C(=O)c1ccc([N+](=O)[O-])cc1)c1ccc(F)cc12 [Compound 83, 1′-(allyl)-1,2-dihydro-5-fluoro-1-(4-nitro-benzoyl)-spiro[3H-indole-3,4′-piperidine]] | 757
C=CCN1CCC2(CC1)CN(C(=O)c1cccc3ccccc13)c1ccc(F)cc12 [Compound 85, 1′-(allyl)-1,2-dihydro-5-fluoro-1-(naphthalene-1-carbonyl)-spiro[3H-indole-3,4′-piperidine]] | 381
C=CCN1CCC2(CC1)CN(C(=O)c1cccc(Cl)c1)c1ccc(F)cc12 [Compound 86, 1′-(allyl)-1,2-dihydro-5-fluoro-1-(3-chloro-benzoyl)-spiro[3H-indole-3,4′-piperidine]] | 705
C=CCN1CCC2(CC1)CN(C(=O)c1ccc(F)c(C(F)(F)F)c1)c1ccc(F)cc12 [Compound 88, 1′-(allyl)-1,2-dihydro-5-fluoro-1-(3-trifluoromethyl-4-fluoro-benzoyl)-spiro[3H-indole-3,4′-piperidine]] | 896
C=CCN1CCC2(CC1)CN(C(=O)c1ccc3c(c1)OCO3)c1ccc(F)cc12 [Compound 89, 1′-(allyl)-1,2-dihydro-5-fluoro-1-(benzo[1,3]dioxole-5-carbonyl)-spiro[3H-indole-3,4′-piperidine]] | 989
C=CCN1CCC2(CC1)CN(C(=O)c1cccc(C(Cl)Cl)c1)c1ccc(F)cc12 [Compound 92, 1′-(allyl)-1,2-dihydro-5-fluoro-1-(3-dichloromethyl-benzoyl)-spiro[3H-indole-3,4′-piperidine]] | 592
C=CCN1CCC2(CC1)CN(C(=O)c1cccnc1Cl)c1ccc(F)cc12 [Compound 93, 1′-(allyl)-1,2-dihydro-5-fluoro-1-(2-chloro-pyridine-3-carbonyl)-spiro[3H-indole-3,4′-piperidine]] | 841
O=C(c1ccccc1Cl)N1CC2(CCN(CC3CC3)CC2)c2ccccc21 [Compound 101, 1′-(cyclopropylmethyl)-1,2-dihydro-1-(2-chloro-benzoyl)-spiro[3H-indole-3,4′-piperidine]] | 792
C=CCN1CCC2(CC1)CN(C(=O)c1cccc(C(Cl)Cl)c1)c1ccccc12 [Compound 102, 1′-(allyl)-1,2-dihydro-1-(3-dichloromethyl-benzoyl)-spiro[3H-indole-3,4′-piperidine]] | 939
C=CCN1CCC2(CC1)CN(C(=O)c1cccc3ccccc13)c1ccccc12 [Compound 133, 1′-(allyl)-1,2-dihydro-1-(naphthylene-1-carbonyl)-spiro[3H-indole-3,4′-piperidine]] | 535
O=C(c1ccccc1F)N1CC2(CCN(CC3CC3)CC2)c2cc(F)ccc21 [Compound 139, 1′-(cyclopropylmethyl)-1,2-dihydro-5-fluoro-1-(2-fluoro-benzoyl)-spiro[3H-indole-3,4′-piperidine]] | 728
O=C(c1cccc(F)c1F)N1CC2(CCN(CC3CC3)CC2)c2cc(F)ccc21 [Compound 142, 1′-(cyclopropylmethyl)-1,2-dihydro-5-fluoro-1-(2,3-difluoro-benzoyl)-spiro[3H-indole-3,4′-piperidine]] | 480

SMILES | IC50 [nM]
O=C(c1cccc(C(Cl)Cl)c1)N1CC2(CCN(CC3CC3)CC2)c2cc(F)ccc21 [Compound 147, 1′-(cyclopropylmethyl)-1,2-dihydro-5-fluoro-1-(3-dichloromethyl-benzoyl)-spiro[3H-indole-3,4′-piperidine]] | 735
O=C1c2ccccc2-c2cccc(C(=O)N3CC4(CCN(CC5CC5)CC4)c4cc(F)ccc43)c21 [Compound 153, 1′-(cyclopropylmethyl)-1,2-dihydro-5-fluoro-1-(9-oxo-9H-fluorene-1-carbonyl)-spiro[3H-indole-3,4′-piperidine]] | 774
O=C(c1cccc2ccccc12)N1CC2(CCN(CC3CC3)CC2)c2cc(F)ccc21 [Compound 159, 1′-(cyclopropylmethyl)-1,2-dihydro-5-fluoro-1-(naphthylene-1-carbonyl)-spiro[3H-indole-3,4′-piperidine]] | 505
O=C(c1ccc2ccccc2c1)N1CC2(CCN(CC3CC3)CC2)c2cc(F)ccc21 [Compound 160, 1′-(cyclopropylmethyl)-1,2-dihydro-5-fluoro-1-(naphthylene-2-carbonyl)-spiro[3H-indole-3,4′-piperidine]] | 721
O=C(c1cccc(Cl)c1)N1CC2(CCN(CC3CC3)CC2)c2cc(F)ccc21 [Compound 165, 1′-(cyclopropylmethyl)-1,2-dihydro-5-fluoro-1-(3-chloro-benzoyl)-spiro[3H-indole-3,4′-piperidine]] | 757
O=C(N1CC2(CCN(CC3CC3)CC2)c2cc(F)ccc21)C12CC3CC(CC(C3)C1)C2 [Compound 168, 1′-(cyclopropylmethyl)-1,2-dihydro-5-fluoro-1-(adamantane-1-carbonyl)-spiro[3H-indole-3,4′-piperidine]] | 502
C=CCN1CCC2(CC1)CN(S(=O)(=O)c1ccc(Cl)cc1Cl)c1ccc(F)cc12 [Compound 185, 1′-(allyl)-1,2-dihydro-5-fluoro-1-(2,4-dichloro-benzenesulfonyl)-spiro[3H-indole-3,4′-piperidine]] | 956
O=S(=O)(c1ccc(Cl)cc1Cl)N1CC2(CCN(CC3CC3)CC2)c2cc(F)ccc21 [Compound 192, 1′-(cyclopropylmethyl)-1,2-dihydro-5-fluoro-1-(2,4-dichloro-benzenesulfonyl)-spiro[3H-indole-3,4′-piperidine]] | 891
CN1CCC2(CC1)CN(C(=O)c1cccc(C(Cl)Cl)c1)c1ccc(F)cc12 [Compound 199, 1′-(methyl)-1,2-dihydro-5-fluoro-1-(3-dichloromethyl-benzoyl)-spiro[3H-indole-3,4′-piperidine]] | 382
C=CCN1CCC2(CC1)CN(C(=O)c1ccccc1F)c1ccc(OC)cc12 [Compound 204, 1′-(allyl)-1,2-dihydro-5-methoxy-1-(2-fluoro-benzoyl)-spiro[3H-indole-3,4′-piperidine]] | 554
C=CCN1CCC2(CC1)CN(S(=O)(=O)c1ccccc1Cl)c1ccc(F)cc12 [Compound 206, 1′-(allyl)-1,2-dihydro-5-fluoro-1-(2-chloro-benzenesulfonyl)-spiro[3H-indole-3,4′-piperidine]] | 303
C=CCN1CCC2(CC1)CN(S(=O)(=O)c1cc(Cl)c(Cl)s1)c1ccc(F)cc12 [Compound 210, 1′-(allyl)-1,2-dihydro-5-fluoro-1-(4,5-dichloro-thiophene-2-sulfonyl)-spiro[3H-indole-3,4′-piperidine]] | 890
C=CCN1CCC2(CC1)CN(C(=O)c1cc(Cl)sc1Cl)c1ccc(F)cc12 [Compound 211, 1′-(allyl)-1,2-dihydro-5-fluoro-1-(2,5-dichloro-thiophene-3-carbonyl)-spiro[3H-indole-3,4′-piperidine]] | 855
C=CCN1CCC2(CC1)CN(S(=O)(=O)c1ccc(Cl)s1)c1ccc(F)cc12 [Compound 214, 1′-(allyl)-1,2-dihydro-5-fluoro-1-(5-chloro-thiophene-2-sulfonyl)-spiro[3H-indole-3,4′-piperidine]] | 455
C=CCN1CCC2(CC1)CN(C(=O)c1cccnc1SC)c1ccc(F)cc12 [Compound 215, 1′-(allyl)-1,2-dihydro-5-fluoro-1-(2-methylsulfanyl-pyridine-3-carbonyl)-spiro[3H-indole-3,4′-piperidine]] | 607
